From patent US11945826B2, “Hydroxypyridoxazepines as NRF2 activators” (GLAXOSMITHKLINE INTELLECTUAL PROPERTY DEVELOPMENT LIMITED, priority 2019, dated 2024)

Test system: murine TAC model
Assay: Mouse Transverse Aortic Constriction (TAC) Left Ventricular Pressure Overload Model
Format: in vivo, C57BLK/6J mice
Conditions: 10-week mouse TAC, Example 1 at 1, 3, 10 mg/kg/d, Example B at 100 mg/kg/d
Source text: Male C57BLK/6J mice (10-12 weeks old) were individually housed and acclimated to a standard powdered rodent diet for 1-3 days. Water was offered ad libitum throughout the study. Mice were initially anesthetized in a chamber using an 3% isoflurane with oxygen (1.0 L/min), and then maintained at 1.5% via nose cone (without intubation). A small incision (˜5 mm) was made just left of midline and just above the rib cage at the level of the suprasternal notch. The muscle tissue was retracted to expose the area above the pleural cavity. The lobes of the thymus were separated and retracted to expose the aortic arch. Fine surgical forceps with blunted tips were used to expose a region above and below the aorta. A micro blunt hook tied with 7-0 silk surgical suture was looped under the aorta and the suture pulled through. The suture was tied-off against a small piece of blunted 27 G needle and the needle was then removed creating the aortic constriction (a 60-70% constriction of the lumen). The incision was closed using 6-0 silk suture for the muscle layer, then the skin with Medbond. The sham procedure was identical without ligation of aorta. Depending on the individual study designs, drug administration began either on the day of surgery, or 1-2 weeks after surgery (detailed in figure legends) and continued until the end of study. Compounds were administered in the mouse chow unless otherwise noted in FIG. 12 legends. TAC study duration was either 6 weeks or 10 weeks in duration. All TAC study endpoints were collected at the end of study. Following heart dissections, samples were either snap frozen in liquid nitrogen and stored at −80° C. or placed in 10% neutral buffered formalin until analysis.
Echocardiography: For mouse TAC studies, echocardiography was performed on a Vevo 2100 high frequency imaging system. Animals were anesthetized with 2-3% isoflurane and sedation maintained with 1% isoflurane with animals on a heating pad. B-mode imaging of three cardiac cycles was used to assess ejection fraction (EF), end diastolic volume (EDV), end systolic volume (ESV), LV mass, and heart rate. ECG was used to measure heart rate during the echocardiography procedure.
NADPH dehydrogenase [quinone]-1 (NQO1) activity: Left ventricular (LV) tissue NQO1 activity was determined using an NQO1 assay kit per manufacturer's protocol (Abcam, Cambridge MA)
The KEAP1 blockers/Nrf2 activators, (R)-3-(1,4-dimethyl-1H-benzo[d][1,2,3]triazol-5-yl)-3-(3-(((R)-2-ethyl-7-hydroxy-2,3-dihydropyrido[2,3-f][1,4]oxazepin-4(5H)-yl)methyl)-4-methylphenyl)propanoic acid, hydrochloride, or a tautomer thereof (Example 1) (in dose-response) and (S)-3-(1,4-dimethyl-1H-benzo[d][1,2,3]triazol-5-yl)-3-(3-(((R)-2-ethyl-2,3-dihydropyrido[3,4-f][1,4]oxazepin-4(5H)-yl)methyl)-4-methylphenyl)-2,2-dimethylpropanoic acid (Example B) were evaluated in a 10-week mouse TAC model of severe hemodynamic stress.
FIG. 12 depicts the effect of the KEAP1-kelch domain blockers/Nrf2 activators (R)-3-(1,4-dimethyl-1H-benzo[d][1,2,3]triazol-5-yl)-3-(3-(((R)-2-ethyl-7-hydroxy-2,3-dihydropyrido[2,3-f][1,4]oxazepin-4(5H)-yl)methyl)-4-methylphenyl)propanoic acid, hydrochloride, or a tautomer thereof (Compound of Example 1) and (S)-3-(1,4-dimethyl-1H-benzo[d][1,2,3]triazol-5-yl)-3-(3-(((R)-2-ethyl-2,3-dihydropyrido[3,4-f][1,4]oxazepin-4(5H)-yl)methyl)-4-methylphenyl)-2,2-dimethylpropanoic acid (Compound B) on cardiac function, remodeling, and NQO1 enzyme activity in the murine 10-week TAC model. All compounds were dosed in chow beginning 2-weeks after TAC. […]

CC[C@@H]1CN(Cc2cc([C@@H](CC(=O)O)c3ccc4c(nnn4C)c3C)ccc2C)Cc2nc(O)ccc2O1 [Example 1, (R)-3-(1,4-dimethyl-1H-benzo[d][1,2,3]triazol-5-yl)-3-(3-(((R)-2-ethyl-7-hydroxy-2,3-dihydropyrido[2,3-f][1,4]oxazepin-4(5H)-yl)methyl)-4-methylphenyl)propanoic acid]
cardiac function as assessed by ejection fraction (daily in chow for eight weeks from 2 weeks after TAC): full normalization of cardiac function | NAD(P)H quinone oxidoreductase 1 (NQO1) in the LV (daily in chow for eight weeks): significant dose-related elevations | cardiac hypertrophy (left ventricular mass) (daily in chow for eight weeks): did not influence cardiac hypertrophy | unloading the heart (blood pressure) or heart rate (daily in chow for eight weeks): nor did the ejection fraction change occur by unloading the heart (i.e., lowering blood pressure) or increasing the heart rate
